# In paper PMC8113459, “Selective inhibition of cullin 3 neddylation through covalent targeting DCN1 protects mice from acetaminophen-induced liver toxicity” (Nature Communications, 2021):
# Several values for one entry are separate records, joined by “and”; a condition that tells them apart may be missing. Equal values may be shown once.
# What was measured:
# Format in all cases: cell-based, human
# [1] = Cell viability assay (WST-8), HCT116; conditions: human, HCT116 cells, replicates, read-out: cell viability relative to control
# Procedure: (§1) Cell viability assay was performed as previously described. The effect of DCN1 inhibitors on cell growth was evaluated by a WST-8 [2-(2-methoxy-4-nitrophenyl)-3-(4-nitrophenyl)-5-(2,4-disulfophenyl)-2H-tetrazolium, monosodium salt assay (Dojindo Molecular Technologies, Inc). Cells (2000–3000 cells in each well) were seeded in 96-well tissue culture plates in medium (100 μL) and treated with serial dilution of DCN1 inhibitors for 3 days. At the end of incubation, WST-8 dye (20 μL) was added to each well and incubated for 1–3 h, then the absorbance was measured in a microplate reader (Molecular Devices) at 450 nm. Cell growth inhibition was evaluated as the ratio of the absorbance of the sample to that of the control. The values were inserted into Prism software, and the curves and the EC50 values were produced by Prism software.
# [2] = system: HCT116 cells; experiment: Cell viability assay (WST-8), HCT116; conditions: for cell viability relative to control: replicates
# Procedure: as §1
# [3] = system: neddylation of cullin 3; experiment: Western blot, cullin 3 neddylation in U2OS cells; conditions: U2OS, Fig. 6c
# Procedure: (§2) Western blotting was performed as described previously. Treated cells were lysed by RIPA buffer supplemented with protease inhibitor. The expression level of indicated proteins was examined by immunoblotting analysis and GAPDH was used as the loading control. Antibodies were purchased commercially: cullin 1 (sc-17775, 1:500 dilution) and cullin 2 (sc-166506, 1:500 dilution) from Santa Cruz Biotech (Santa Cruz, CA); cullin 4A (PA5-14542, 1:1000 dilution), cullin 4B (PA5-50647, 1:1000 dilution), and DCN3 (DCUN1D3, PA5-44000, 1:1000 dilution) from Thermo Fisher Scientific (Wayne, MI); cullin 3 (2759, 1:1000), NRF2 (12721, 1:1000 dilution), HO-1 (70081, 1:1000 dilution), and Bim (2819, 1:1000 dilution) from Cell Signaling Technology (Boston, MA); DCN1 (GWB-E3D700, 1:1000 dilution) from GenWay Biotech (San Diego, CA); and cullin 5 (A302-173A, 1:500 dilution) from Bethyl Labs (Montgomery, TX). Results are representative of two independent experiments.
# [4] = Cell viability assay (WST-8), U2OS; conditions: human, U2OS cells, replicates, read-out: cell viability relative to control
# Procedure: as §1
# [5] = system: U2OS cells; experiment: Cell viability assay (WST-8), U2OS; conditions: for cell viability relative to control: replicates
# Procedure: as §1
# [6] = system: MDA-MB-231 cells; experiment: Cell viability assay (WST-8), MDA-MB-231; conditions: for cell viability relative to control: replicates
# Procedure: as §1
# [7] = Cell viability assay (WST-8), MDA-MB-231; conditions: human, MDA-MB-231 cells, replicates, read-out: cell viability relative to control
# Procedure: as §1
# [8] = Cell viability assay (WST-8), KYSE70; conditions: human, KYSE70 cells, replicates, read-out: cell viability relative to control
# Procedure: as §1
# [9] = system: KYSE70 cells; experiment: Cell viability assay (WST-8), KYSE70; conditions: for cell viability relative to control: replicates
# Procedure: as §1
# [10] = system: four cancer cell lines; experiment: Cell viability assay (WST-8), four cancer cell lines; conditions: concentrations up to 1000 nM, 72 h
# Procedure: as §1
# [11] = system: neddylation of cullin 1, 2, 4A, 4B, and 5; experiment: Western blot, neddylation of other cullin members
# Procedure: as §2
smiles,measurement,setting,value
NS(=O)(=O)OC[C@@H]1C[C@@H](n2ccc3c(N[C@H]4CCc5ccccc54)ncnc32)C[C@@H]1O [MLN4924],viability at 72 h,"[1]; conc 3, 72 h",103%
same,viability at 72 h,"[1]; conc 10, 72 h",118%
same,viability at 72 h,"[1]; conc 30, 72 h",106%
same,viability at 72 h,"[1]; conc 300, 72 h",26.5%
same,viability at 72 h,"[1]; conc 1000, 72 h",27.6%
same,EC50,"[2]; Homo sapiens, HCT-116, 72 h, cell line assigned from panel order, read-out: EC50, cell growth inhibition",294 nM
same,cell viability relative to control,"[2]; conc 3, 72 h",93.0769 and 97.803
same,cell viability relative to control,"[2]; conc 10, 72 h",99.5045 and 108.03
same,cell viability relative to control,"[2]; conc 30, 72 h",98.1868 and 105.151
same,cell viability relative to control,"[2]; conc 100, 72 h",42.5676 and 63.1319 and 54.6212
same,cell viability relative to control,"[2]; conc 300, 72 h",39.0549 and 40.989
same,cell viability relative to control,"[2]; conc 1000, 72 h",32.8022 and 29.945
same,time within which the neddylation of cullin 3 is effectively inhibited,[3],≤ 30 min
same,viability at 72 h,"[4]; conc 10, 72 h",108%
same,viability at 72 h,"[4]; conc 30, 72 h",97.3%
same,viability at 72 h,"[4]; conc 100, 72 h",50.8%
same,viability at 72 h,"[4]; conc 1000, 72 h",21%
same,EC50,"[5]; Homo sapiens, U2OS, 72 h, cell line assigned from panel order, read-out: EC50, cell growth inhibition",209 nM
same,cell viability relative to control,"[5]; conc 3, 72 h",108.902 and 87.9268 and 99.0244
same,cell viability relative to control,"[5]; conc 10, 72 h",107.561 and 98.1707
same,cell viability relative to control,"[5]; conc 30, 72 h",105.122 and 104.756
same,cell viability relative to control,"[5]; conc 100, 72 h",49.6951 and 43.1707
same,cell viability relative to control,"[5]; conc 300, 72 h",47.5122 and 35 and 24.2561
same,cell viability relative to control,"[5]; conc 1000, 72 h",34.8293 and 26.6585
same,EC50,"[6]; Homo sapiens, MDA-MB-231, 72 h, cell line assigned from panel order, read-out: EC50, cell growth inhibition",154 nM
same,cell viability relative to control,"[6]; conc 3, 72 h",94.1379 and 99.1954
same,cell viability relative to control,"[6]; conc 10, 72 h",109.785 and 104.516
same,cell viability relative to control,"[6]; conc 30, 72 h",84.086 and 84.3011
same,cell viability relative to control,"[6]; conc 100, 72 h",59.6774 and 48.8172
same,cell viability relative to control,"[6]; conc 300, 72 h",28.4946 and 44.3011
same,cell viability relative to control,"[6]; conc 1000, 72 h",18.2796 and 26.5591
same,viability at 72 h,"[7]; conc 3, 72 h",106%
same,viability at 72 h,"[7]; conc 10, 72 h",98.2%
same,viability at 72 h,"[7]; conc 30, 72 h",78.8%
same,viability at 72 h,"[7]; conc 100, 72 h",43.4%
same,viability at 72 h,"[7]; conc 300, 72 h",25.5%
same,viability at 72 h,"[7]; conc 1000, 72 h",13.7%
same,viability at 72 h,"[8]; conc 10, 72 h",110%
same,viability at 72 h,"[8]; conc 30, 72 h",76.4%
same,viability at 72 h,"[8]; conc 100, 72 h",59.5%
same,viability at 72 h,"[8]; conc 300, 72 h",41.9%
same,viability at 72 h,"[8]; conc 1000, 72 h",31%
same,EC50,"[9]; Homo sapiens, KYSE-70, 72 h, cell line assigned from panel order, read-out: EC50, cell growth inhibition",266 nM
same,cell viability relative to control,"[9]; conc 3, 72 h",119.091 and 98.7603 and 92.6446
same,cell viability relative to control,"[9]; conc 10, 72 h",116.984 and 100.041
same,cell viability relative to control,"[9]; conc 30, 72 h",82.3967
same,cell viability relative to control,"[9]; conc 100, 72 h",57.9752
same,cell viability relative to control,"[9]; conc 300, 72 h",39.3388
same,cell viability relative to control,"[9]; conc 1000, 72 h",29.2149
same,cytotoxicity / cell viability,[10],potently inhibits cell viability
same,inhibition of neddylation of cullin members,"[11]; THLE2, Fig. 6b",potently inhibits neddylation of all cullins
same,time within which the neddylation of cullin 1 is effectively inhibited,"[11]; U2OS, Fig. 6c",≤ 30 min
